Experimental data published in ChEMBL document CHEMBL1201862, “PubChem BioAssay data set” (2004).
Calls of active or inactive are those of the source.

Tests used:
[1] = target: Disintegrin and metalloproteinase domain-containing protein 17 (Homo sapiens, UniProt P78536); test: exosite inhibitors of ADAM17, dose response, biochemical (AID 743260)
[2] = ADAM10 protease inhibitors, dose response, selectivity assay for ADAM17 exosite inhibitor project, biochemical, FRET peptide substrate, recombinant human ADAM10 (AID 743259);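 note: ADAM10 enzyme cleaving a FRET peptide substrate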
[3] = cytotoxicity in OVCAR8 ovarian cancer cells, dose response, PAX8 project, cell-based, plate reader, dry powder samples (AID 743197); assay type: functional; settings: OVCAR-8
[4] = target: Paired box protein Pax-8 (Homo sapiens, UniProt Q06710); test: inhibitors of PAX8-driven TPO luciferase reporter, dose response, RMG-I cells, cherry-pick (AID 687027); assay type: functional, cell-based;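 note: luciferase reporter driven by Pax8 target thyroperoxidase promoter measured by SteadyGlo luminescence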
[5] = NIH:OVCAR-3 ovarian cancer cell cytotoxicity, dose response, PAX8 inhibitor project, plate reader, dry powder samples (AID 743044); assay type: functional, cell-based
[6] = IGROV1 ovarian cancer cell cytotoxicity, dose response, PAX8 inhibitor project, plate reader, dry powder samples (AID 743043); assay type: functional, cell-based; settings: IGROV-1
[7] = target: Photoreceptor-specific nuclear receptor (Homo sapiens, UniProt Q9Y5X4); test: NR2E3 inverse agonists, dose response, biochemical, TR-FRET (AID 463256); assay type: functional
[8] = target: Peroxisome proliferator-activated receptor gamma/Nuclear receptor corepressor 2 (Homo sapiens, UniProt P37231+Q9Y618); test: Counterscreen for NR2E3 inverse agonists: TR-FRET-based biochemical high throughput dose response assay to identify inverse agonists of the interaction between peroxisome proliferator-activated receptor gamma (PPARg) and nuclear receptor co-repressor 2 (NCOR2).; assay type: functional
[9] = T. cruzi growth inhibition in host cells, dose response, cell-based, plate reader, dry powder, set 2 (AID 652275); assay type: functional
[10] = cells
[11] = target: Major prion protein (Homo sapiens, UniProt P04156); assay type: functional, cell-based
[12] = target: Peroxisome proliferator-activated receptor gamma/Nuclear receptor coactivator 2 (Homo sapiens, UniProt P37231); test: (§1) TR-FRET dose response biochemical High Throughput Screening assay for agonists of the steroid receptor coactivator 2 (SRC-2) recruitment by the peroxisome proliferator-activated receptor gamma (PPAR gamma): non-selective agonists. [Related pubchem assays: 1297, 1032 ]; assay type: functional
[13] = target: Peroxisome proliferator-activated receptor gamma/Nuclear receptor coactivator 3 (Homo sapiens, UniProt P37231); test: as §1, with “3 (SRC-3)” for “2 (SRC-2)”, “1301 (Confirmation screen.), 1048 (Primary screen.)]” for “1297, 1032 ]”; assay type: functional
[14] = HepG2 cell cytotoxicity, dose response, cytotoxicity control, cherry-picked samples (AID 1159577); assay type: functional, cell-based
[15] = HepG2 cell cytotoxicity, dose response, cytotoxicity control, plate reader, dry powder samples (AID 1159569); assay type: functional, cell-based;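 note: inhibitor potency with signal falling toward the positive control level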
[16] = P. falciparum ATP4 D1247Y mutant growth inhibitors, dose response, NITD609-resistant line, SYBR Green, dry powder (AID 1159571); assay type: functional, cell-based;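 note: parasites synchronized at ring stage by sorbitol before testing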
[17] = P. falciparum 3D7-ScDHODH growth inhibitors, dose response, SYBR Green, dry powder samples (AID 1159570); assay type: functional, cell-based;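 note: parasite growth measured after 72 hours of compound exposure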
[18] = P. falciparum Dd2 growth inhibitors, dose response, SYBR Green, cherry-picked samples (AID 1159567); assay type: functional, cell-based
[19] = P. falciparum Dd2 growth inhibitors, dose response, SYBR Green, dry powder samples (AID 1159566); assay type: functional, cell-based;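 note: potency for growth inhibition with lower SYBR green DNA signal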
[20] = target: Kallikrein-7 (Homo sapiens, UniProt P49862); test: Fluorescence Intensity-based biochemical primary high throughput dose response assay to identify activators of kallikrein-7 (K7) zymogen.
[21] = target: T1, RNA-editing ligase 1, mitochondrial (Trypanosoma brucei brucei, UniProt P86926); test: TbREL1 ligase inhibitors, dose response, biochemical, fluorescence, Trypanosoma brucei (AID 1117295); assay type: functional
T1 sequence (P86926 whole entry): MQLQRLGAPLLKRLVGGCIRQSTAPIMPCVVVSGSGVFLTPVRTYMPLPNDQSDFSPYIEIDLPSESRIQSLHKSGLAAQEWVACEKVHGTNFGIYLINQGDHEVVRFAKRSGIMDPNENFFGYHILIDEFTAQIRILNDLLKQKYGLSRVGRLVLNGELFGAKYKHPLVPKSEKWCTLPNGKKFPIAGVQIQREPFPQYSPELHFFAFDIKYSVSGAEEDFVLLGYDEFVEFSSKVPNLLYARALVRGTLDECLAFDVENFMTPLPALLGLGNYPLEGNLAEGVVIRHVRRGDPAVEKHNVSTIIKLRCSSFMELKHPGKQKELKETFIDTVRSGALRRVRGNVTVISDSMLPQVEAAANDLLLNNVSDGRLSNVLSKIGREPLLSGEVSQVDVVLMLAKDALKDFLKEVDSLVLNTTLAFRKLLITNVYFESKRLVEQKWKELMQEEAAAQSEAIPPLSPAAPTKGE

[22] = Luminescence Cell-Based Dose Response HTS to Identify Inhibitors of 5'UTR Stem-Loop Driven Prion Protein mRNA Translation in H4 Neuroglioblastoma Cells. [Related pubchem assays: 1827 (Project Summary), 1813 (Primary HTS)]; assay type: functional
[23] = inhibitors of firefly luciferase expression or activity, dose response, H4 neuroglioma cells, luminescence (AID 1990); assay type: functional, cell-based
[24] = inhibitors of SNCA 5'UTR-driven reporter translation, confirmation, H4 neuroglioma cells, luminescence (AID 1988); assay type: functional, cell-based
[25] = target: Prothrombin (Homo sapiens, UniProt P00734); test: Thrombin 1536 HTS Dose Response Confirmation. [Related pubchem assays: 1046 (Thrombin 1536 HTS; hits were confirmed in this assay)]; assay type: functional
[26] = target: NAD-dependent protein deacylase sirtuin-5, mitochondrial (Homo sapiens, UniProt Q9NXA8); test: SIRT5 desuccinylase inhibitors, dose response, biochemical, fluorescence imaging, cherry-pick, set 5 (AID 720591);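 note: desuccinylation of succinyl peptide AMC substrate read as fluorescence after trypsin release; potency of inhibitors that lower fluorescence and may act on trypsin instead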
[27] = target: Albumin (Bos taurus, UniProt P02769); test: Counterscreen for inhibitors of T-cell receptor (TCR)-CD3 interaction: Fluorescence-based biochemical high throughput dose response assay to identify inhibitors of T-cell receptor (TCR)-CD3 interaction using a TAMRA-labeled BSA probe.; assay type: functional
[28] = target: Nonstructural protein 1 (Influenza A virus, UniProt Q194T2); assay type: functional, Influenza A virus (A/California/07/2009(H1N1))
[29] = target: Induced myeloid leukemia cell differentiation protein Mcl-1 (Homo sapiens, UniProt Q07820); assay type: functional
[30] = target: T2, Fatty acid synthase (Homo sapiens, UniProt P49327); test: FAS thioesterase domain inhibitors, dose response, biochemical, endpoint fluorescence intensity, uHTS hits (AID 624327); assay type: functional;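 note: fluorescence from hydrolysis of an O-methyl fluorescein acyl ester substrate by the enzyme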
[31] = target: T2, Fatty acid synthase; test: FAS thioesterase domain inhibitors, dose response, biochemical, kinetic fluorescence intensity (AID 624326); assay type: functional;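 note: rate of fluorescence rise from hydrolysis of a fluorogenic O-methyl fluorescein ester substrate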
[32] = inhibitors of PGC1a acetylation in cells, dose response, cell-based, cherry-picked samples (AID 720514); assay type: functional;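 note: potency may reflect raised or lowered acetylation signal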
[33] = target: Protein-tyrosine kinase 2-beta (Homo sapiens, UniProt Q14289);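 note: potency of inhibitors of PYK2 kinase phosphorylation of poly-GT substrate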

Cc1ccc(CN2C(=O)[C@H]3Cc4c([nH]c5ccccc45)C(C)(C)N3C2=O)cc1
IC50 [1]: > 69.5 µM (inactive)
IC50 [2]: > 69.5 µM (inactive)

C[C@@H]1CCCCO[C@H](CN(C)Cc2ccc(C(F)(F)F)cc2)[C@@H](C)CN([C@@H](C)CO)C(=O)c2cc(NS(=O)(=O)c3ccc(F)cc3)ccc2O1
AC50 [3]: 29.7 µM (active)
AC50 [4]: 8.57 µM (active)
AC50 [5]: 21.5 µM (active)
AC50 [6]: 31 µM (active)

Cc1csc(NC(=O)COc2ccc3c(C)cc(=O)oc3c2)n1
IC50 [7]: 7.06 µM (active)
IC50 [8]: > 39.8 µM (not active)

CC(C)N1C[C@@H](CN(C)Cc2ccc(Cl)cc2)Oc2c(C(=O)Nc3ccnnc3)cccc2C1=O
AC50 [9]: 0.299 µM (active)

CCC(=O)N1CC[C@@H]2[C@H]1c1cc(Br)ccc1N(C)[C@@H]2CO
AC50 [9]: 11.7 µM (active)

N#CC1=C2SCN(Cc3ccccc3)CN2C(=O)CC1c1cccs1 (centres undefined)
IC50 [10]: > 138 µM (inactive)
IC50 [11]: > 138 µM (inactive)
EC50 [12]: > 79.4 µM (not active)
EC50 [13]: > 79.4 µM (not active)

CCCc1cn(CC[C@@H]2CC[C@@H](NS(=O)(=O)c3ccc(-c4ccccc4)cc3)[C@H](CO)O2)nn1
AC50 [14]: 23.3 µM (active)
AC50 [15]: 37.5 µM (active)
AC50 [16]: 1.82 µM (active)
AC50 [17]: 2.17 µM (active)
AC50 [18]: 1.7 µM (active)
AC50 [19]: 1.99 µM (active)

Cc1cc(C)c2c(n1)nn1c(NCCN3CCOCC3)cc(C)nc21
EC50 [20]: 34.8 µM (inactive)

COc1ccc(C2C3=C(O)CC(C)(C)CC3=NC(C)=C2C(=O)N2CCOCC2)c(OC)c1 (centres undefined)
EC50 [20]: 52.4 µM (inactive)

COC(=O)C1=C(C)N(Cc2ccc(C(F)(F)F)cc2)C(NCc2ccccc2C(F)(F)F)=NC1c1ccc(Cl)cc1 (centres undefined)
IC50 [21]: > 96.6 µM (inactive)

CCOC(=O)c1c(-c2ccccc2)csc1NC(=O)CSc1nncs1
EC50 [22]: > 120 µM (not active)
EC50 [23]: 15.8 µM (active)
IC50 [1]: > 69.5 µM (inactive)
IC50 [2]: > 69.5 µM (inactive)
EC50 [24]: 30.6 µM (active)

COc1cccc(-c2cc(C(=O)Nc3cc(C)on3)no2)c1
IC50 [7]: > 39.8 µM (not active)
IC50 [8]: > 39.8 µM (not active)

C[C@@H]1CN([C@H](C)CO)C(=O)c2cc(NC(=O)Nc3ccc(F)cc3)ccc2O[C@@H](C)CCCCO[C@H]1CN(C)C(=O)NC1CCCCC1
AC50 [4]: 6.55 µM (active)
AC50 [5]: 43.1 µM (active)

COC(=O)C1=C(C)N(Cc2cccc(C(F)(F)F)c2)C(NCc2ccccc2C(F)(F)F)=NC1c1cccc(F)c1 (centres undefined)
IC50 [21]: > 96.6 µM (inactive)

CC(=N)/C(C#N)=C(/O)CSc1nc2cc(Cl)ccc2s1
IC50 [25]: > 50 µM (not active)

Cc1cccc(NC(=O)N2CCCC(CNC(=O)c3ccccc3Cl)C2)c1C (centres undefined)
AC50 [26]: > 30 µM (inactive)

O=C(CSc1nc2ccccc2c(=O)n1-c1ccc(F)c(Cl)c1)Nc1cccc(S(=O)(=O)N2CCOCC2)c1
IC50 [27]: > 94.2 µM (inactive)

Cc1n[nH]c(=S)n(NC(=O)/C=C/C(=O)Nn2c(=S)[nH]nc(C)c2=O)c1=O
IC50 [28]: 7.29 µM (active)
IC50 [29]: 4.67 µM (active)
IC50 [21]: 63.6 µM (inactive)

O=C(CN1C(=O)NC2(CCCc3ccccc32)C1=O)NCC(F)(F)F (centres undefined)
IC50 [7]: 8.55 µM (active)
IC50 [8]: 7.85 µM (active)

C[C@H]1CCCCO[C@H](CN(C)Cc2ccc(C(F)(F)F)cc2)[C@@H](C)CN([C@@H](C)CO)C(=O)c2cc(NS(=O)(=O)c3ccc(Cl)cc3)ccc2O1
AC50 [3]: > 70 µM (inactive)
AC50 [4]: 4.73 µM (active)
AC50 [6]: 36 µM (active)

CCn1cc(C(=O)NCc2ccco2)c(=O)c2cc(S(=O)(=O)N3CCCCCC3)ccc21
IC50 [30]: 2.96 µM (active)
IC50 [31]: 2.32 µM (active)
IC50 [25]: 14.7 µM (active)

CC1CCCN(CC(=O)N2CCCc3ccccc32)C1.[O-][Cl+3]([O-])([O-])O (centres undefined)
AC50 [32]: 27.1 µM (active)

OC[C@@H]1CC[C@@H]2O[C@H](CCc3ccc(C#CCc4ccccc4)cc3)[C@H](n3cc(-c4ccccc4)nn3)C[C@@H]2O1
AC50 [15]: > 100 µM (inactive)
AC50 [16]: 1.53 µM (active)
AC50 [17]: 1.79 µM (active)
AC50 [18]: 1.45 µM (active)
AC50 [19]: 0.879 µM (active)

Cc1cc(NC(=O)CSc2nnc3ccc(-c4ccccc4)nn23)no1
AC50 [26]: > 30 µM (inactive)

COc1ccc(OC)c(NC(=O)COC(=O)Cc2ccc(-c3ccccc3)cc2)c1
IC50 [1]: > 69.5 µM (inactive)
IC50 [2]: > 69.5 µM (inactive)

CC(C)OC(=O)CSc1nc(Cc2ccccc2)nc2ccccc12
IC50 [10]: > 138 µM (inactive)
IC50 [11]: 4.45 µM (active)

CCOC(=O)CSc1nc(C(C)C)nc2ccccc12
IC50 [10]: > 138 µM (inactive)
IC50 [11]: 1.08 µM (active)
IC50 [33]: > 69.5 µM (not active)

C(=C\c1ccc([C@H]2[C@@H]3CN(Cc4cccnc4)C[C@H]2N3)cc1)/c1ccccc1
AC50 [14]: 27.5 µM (active)
AC50 [15]: 18.6 µM (active)
AC50 [16]: 3.95 µM (active)
AC50 [17]: 4.3 µM (active)
AC50 [18]: 2.81 µM (active)
AC50 [19]: 3.79 µM (active)

CC(C)N1CC2(CN(Cc3ccc(F)c(F)c3)C2)Oc2c(NC(=O)c3ccncc3)cccc2C1=O
AC50 [9]: 1.05 µM (active)

O=C(Oc1ccc(Oc2ccccc2)cc1)N1CCC(O)CC1
AC50 [26]: > 30 µM (inactive)
